# Assays:
# [1] = test system: male CF-1 mice; conditions: mouse, in vivo
# [2] = test system: potassium ion-channel; conditions: cited from earlier work
substance,measurement,setting,value
conkunitzin-S1,95% confidence limits of the ED50 of seizure activity,[1],0.3 to 2 nmol
same,Behaviour observed after injection,[1],spastic running followed by tonic extension seizures
same,ED50 of seizure activity,[1],1 nmol per mouse
same,Pore-blocking activity,[2],potassium ion-channel pore-blocking toxin

# — publication PMC2924234 (Acta Crystallographica Section D: Biological Crystallography, 2006)
